ChEMBL document CHEMBL5715949, “Discovery of a selective irreversible BMX inhibitor for prostate cancer” (ACS Chem Biol, 2013)
Active and inactive are the calls of the source. The calls are words filed in the database; no cut-off is given here.

Tests used:
[1] = biological target: cGMP-dependent protein kinase 1 (Homo sapiens) (UniProt Q13976); assay: Inhibition of PRKG1 (unknown origin) assessed as remaining activity at 1 uM by Kinome scan method relative to control
[2] = Induction of cell cycle arrest in human RV-1 cells assessed as accumulation of cells at S phase at 2.5 uM incubated for 5 days by propidium iodide staining based flow cytometric analysis (reference value: 28.9 %); format: functional; details: time 5 day
[3] = biological target: TGF-beta receptor type-1 (Homo sapiens) (UniProt P36897); assay: Inhibition of TGFBR1 (unknown origin) assessed as remaining activity at 1 uM by Kinome scan method relative to control
[4] = biological target: Focal adhesion kinase 1 (Homo sapiens) (UniProt Q05397); assay: Inhibition of FAK (unknown origin) assessed as remaining activity at 1 uM by Kinome scan method relative to control
[5] = Induction of cell cycle arrest in human RV-1 cells assessed as accumulation of cells at G2/M phase at 2.5 uM incubated for 5 days by propidium iodide staining based flow cytometric analysis (reference value: 11.4 %); format: functional; details: time 5 day
[6] = biological target: Serine/threonine-protein kinase RIO1 (Homo sapiens) (UniProt Q9BRS2); assay: Inhibition of RIOK1 (unknown origin) assessed as remaining activity at 1 uM by Kinome scan method relative to control
[7] = biological target: Serine/threonine-protein kinase DCLK3 (Homo sapiens) (UniProt Q9C098); assay: Inhibition of DCAMKL3 (unknown origin) assessed as remaining activity at 1 uM by Kinome scan method relative to control
[8] = biological target: Tyrosine-protein kinase Mer (Homo sapiens) (UniProt Q12866); assay: Inhibition of MERTK (unknown origin) assessed as remaining activity at 1 uM by Kinome scan method relative to control
[9] = biological target: Cyclin-dependent kinase 7 (Homo sapiens) (UniProt P50613); assay: Inhibition of CDK7 (unknown origin) assessed as remaining activity at 1 uM by Kinome scan method relative to control
[10] = biological target: Serine/threonine-protein kinase PAK 3 (Homo sapiens) (UniProt O75914); assay: Inhibition of PAK3 (unknown origin) assessed as remaining activity at 1 uM by Kinome scan method relative to control
[11] = biological target: Dual specificity testis-specific protein kinase 1 (Homo sapiens) (UniProt Q15569); assay: Inhibition of TESK1 (unknown origin) assessed as remaining activity at 1 uM by Kinome scan method relative to control
[12] = biological target: Platelet-derived growth factor receptor beta (Homo sapiens) (UniProt P09619); assay: Inhibition of PDGFRbeta (unknown origin) assessed as remaining activity at 1 uM by Kinome scan method relative to control
[13] = Inhibition of PI3K/AKT/mTOR signalling pathway in human RV-1 cells assessed as decrease in S6K phosphorylation at T389 residue at 2.5 uM incubated for 4 hrs by immunoblot analysis; format: cell-based
[14] = biological target: Phosphatidylinositol 4,5-bisphosphate 3-kinase catalytic subunit alpha isoform (Homo sapiens) (UniProt P42336); assay: Inhibition of PIK3CA (unknown origin) assessed as remaining activity at 1 uM by Kinome scan method relative to control
Phosphatidylinositol 4,5-bisphosphate 3-kinase catalytic subunit alpha isoform (Homo sapiens), sequence (P42336 whole entry, canonical isoform): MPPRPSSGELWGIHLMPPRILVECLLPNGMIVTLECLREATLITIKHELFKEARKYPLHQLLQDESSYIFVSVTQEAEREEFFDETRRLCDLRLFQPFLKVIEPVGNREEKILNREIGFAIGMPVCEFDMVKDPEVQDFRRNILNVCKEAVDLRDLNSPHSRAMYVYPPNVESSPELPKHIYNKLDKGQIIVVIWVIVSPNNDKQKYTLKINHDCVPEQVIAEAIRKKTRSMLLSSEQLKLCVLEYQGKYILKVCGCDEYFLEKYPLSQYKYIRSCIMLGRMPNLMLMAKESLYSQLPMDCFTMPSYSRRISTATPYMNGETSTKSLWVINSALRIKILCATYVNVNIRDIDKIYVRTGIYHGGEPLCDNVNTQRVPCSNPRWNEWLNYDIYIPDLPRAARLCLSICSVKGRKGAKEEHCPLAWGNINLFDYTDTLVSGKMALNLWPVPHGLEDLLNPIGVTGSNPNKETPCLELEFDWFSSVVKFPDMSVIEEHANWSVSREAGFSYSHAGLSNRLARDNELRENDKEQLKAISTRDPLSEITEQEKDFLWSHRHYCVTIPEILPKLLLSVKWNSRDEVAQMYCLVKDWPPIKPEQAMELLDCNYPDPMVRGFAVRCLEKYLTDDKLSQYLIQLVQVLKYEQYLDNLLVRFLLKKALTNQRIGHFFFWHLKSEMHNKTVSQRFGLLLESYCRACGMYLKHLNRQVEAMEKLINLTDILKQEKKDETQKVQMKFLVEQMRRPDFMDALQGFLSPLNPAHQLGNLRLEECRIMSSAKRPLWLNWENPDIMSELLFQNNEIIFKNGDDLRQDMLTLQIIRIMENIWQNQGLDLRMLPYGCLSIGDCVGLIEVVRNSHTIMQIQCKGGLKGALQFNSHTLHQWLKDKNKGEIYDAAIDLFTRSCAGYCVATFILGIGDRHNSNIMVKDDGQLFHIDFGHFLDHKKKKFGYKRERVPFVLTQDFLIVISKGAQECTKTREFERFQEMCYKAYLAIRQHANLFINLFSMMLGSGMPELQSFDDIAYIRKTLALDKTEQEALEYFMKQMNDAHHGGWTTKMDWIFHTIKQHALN

Cyclin-dependent kinase 7 (Homo sapiens), sequence (P50613 whole entry): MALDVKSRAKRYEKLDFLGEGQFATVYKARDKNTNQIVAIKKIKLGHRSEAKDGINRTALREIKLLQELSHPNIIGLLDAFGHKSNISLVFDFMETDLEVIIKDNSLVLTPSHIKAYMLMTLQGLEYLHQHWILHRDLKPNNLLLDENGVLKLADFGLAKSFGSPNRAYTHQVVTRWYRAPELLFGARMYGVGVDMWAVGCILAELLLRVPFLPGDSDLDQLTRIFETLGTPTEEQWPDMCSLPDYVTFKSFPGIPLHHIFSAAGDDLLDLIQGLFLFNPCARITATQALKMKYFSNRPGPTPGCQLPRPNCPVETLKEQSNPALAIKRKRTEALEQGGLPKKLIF
cGMP-dependent protein kinase 1 (Homo sapiens), sequence (Q13976 whole entry): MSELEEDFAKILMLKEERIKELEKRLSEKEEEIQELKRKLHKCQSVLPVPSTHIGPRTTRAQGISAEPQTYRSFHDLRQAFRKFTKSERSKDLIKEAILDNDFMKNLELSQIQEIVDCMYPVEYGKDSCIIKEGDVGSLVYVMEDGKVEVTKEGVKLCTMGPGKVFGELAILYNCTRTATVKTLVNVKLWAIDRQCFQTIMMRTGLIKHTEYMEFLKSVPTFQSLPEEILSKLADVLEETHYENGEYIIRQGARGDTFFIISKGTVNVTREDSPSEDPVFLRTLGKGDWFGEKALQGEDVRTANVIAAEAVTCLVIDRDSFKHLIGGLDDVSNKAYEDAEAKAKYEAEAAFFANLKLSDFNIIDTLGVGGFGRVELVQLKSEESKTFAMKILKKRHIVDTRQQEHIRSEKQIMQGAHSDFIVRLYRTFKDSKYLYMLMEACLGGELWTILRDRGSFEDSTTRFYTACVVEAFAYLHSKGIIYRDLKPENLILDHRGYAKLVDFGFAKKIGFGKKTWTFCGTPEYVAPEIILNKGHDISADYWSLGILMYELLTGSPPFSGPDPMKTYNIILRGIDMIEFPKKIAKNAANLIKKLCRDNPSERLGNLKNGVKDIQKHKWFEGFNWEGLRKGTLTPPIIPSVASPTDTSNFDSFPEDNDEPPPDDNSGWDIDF
Serine/threonine-protein kinase RIO1 (Homo sapiens), sequence (Q9BRS2 whole entry): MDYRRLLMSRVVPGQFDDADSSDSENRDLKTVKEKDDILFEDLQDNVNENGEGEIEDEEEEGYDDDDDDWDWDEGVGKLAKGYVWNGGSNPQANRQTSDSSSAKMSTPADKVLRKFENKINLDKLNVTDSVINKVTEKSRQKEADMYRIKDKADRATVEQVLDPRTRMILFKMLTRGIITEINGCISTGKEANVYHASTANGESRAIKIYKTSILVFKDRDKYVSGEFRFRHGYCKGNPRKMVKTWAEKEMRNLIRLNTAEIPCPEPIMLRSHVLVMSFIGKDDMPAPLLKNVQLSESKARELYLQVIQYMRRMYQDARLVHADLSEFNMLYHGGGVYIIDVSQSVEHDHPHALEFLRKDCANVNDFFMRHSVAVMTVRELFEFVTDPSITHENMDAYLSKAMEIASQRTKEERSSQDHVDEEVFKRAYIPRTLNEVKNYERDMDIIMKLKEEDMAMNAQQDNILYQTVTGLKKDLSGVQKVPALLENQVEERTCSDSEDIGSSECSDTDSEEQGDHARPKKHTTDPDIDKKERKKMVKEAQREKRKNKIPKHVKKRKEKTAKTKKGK
Tyrosine-protein kinase Mer (Homo sapiens), sequence (Q12866 whole entry): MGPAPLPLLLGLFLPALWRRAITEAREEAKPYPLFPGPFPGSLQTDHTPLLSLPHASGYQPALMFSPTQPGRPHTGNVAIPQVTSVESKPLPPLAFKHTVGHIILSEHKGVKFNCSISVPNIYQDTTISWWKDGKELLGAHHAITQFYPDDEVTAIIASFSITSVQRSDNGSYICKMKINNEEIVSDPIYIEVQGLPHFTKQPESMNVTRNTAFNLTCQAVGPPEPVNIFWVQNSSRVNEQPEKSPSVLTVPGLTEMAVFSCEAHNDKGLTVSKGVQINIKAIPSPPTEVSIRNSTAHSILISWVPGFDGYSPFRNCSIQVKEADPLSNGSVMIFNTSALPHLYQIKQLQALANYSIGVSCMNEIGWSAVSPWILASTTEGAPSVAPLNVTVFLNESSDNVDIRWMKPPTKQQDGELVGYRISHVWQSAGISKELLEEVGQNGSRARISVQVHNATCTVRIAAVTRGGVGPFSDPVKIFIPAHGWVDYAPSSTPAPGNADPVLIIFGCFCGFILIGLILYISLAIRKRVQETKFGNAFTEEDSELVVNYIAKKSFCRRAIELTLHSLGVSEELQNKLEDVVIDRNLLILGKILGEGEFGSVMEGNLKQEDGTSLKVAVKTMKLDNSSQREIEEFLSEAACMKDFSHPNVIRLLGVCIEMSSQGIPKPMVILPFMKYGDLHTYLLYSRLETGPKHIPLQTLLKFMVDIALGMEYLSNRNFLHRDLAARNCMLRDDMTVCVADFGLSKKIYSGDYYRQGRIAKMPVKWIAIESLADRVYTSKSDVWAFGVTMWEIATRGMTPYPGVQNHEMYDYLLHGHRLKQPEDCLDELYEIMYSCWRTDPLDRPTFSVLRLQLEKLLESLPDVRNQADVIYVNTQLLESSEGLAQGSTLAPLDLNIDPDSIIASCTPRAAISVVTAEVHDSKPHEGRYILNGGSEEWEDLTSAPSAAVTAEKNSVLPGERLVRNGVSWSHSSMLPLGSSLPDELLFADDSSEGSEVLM
Dual specificity testis-specific protein kinase 1 (Homo sapiens), sequence (Q15569 whole entry, looked up): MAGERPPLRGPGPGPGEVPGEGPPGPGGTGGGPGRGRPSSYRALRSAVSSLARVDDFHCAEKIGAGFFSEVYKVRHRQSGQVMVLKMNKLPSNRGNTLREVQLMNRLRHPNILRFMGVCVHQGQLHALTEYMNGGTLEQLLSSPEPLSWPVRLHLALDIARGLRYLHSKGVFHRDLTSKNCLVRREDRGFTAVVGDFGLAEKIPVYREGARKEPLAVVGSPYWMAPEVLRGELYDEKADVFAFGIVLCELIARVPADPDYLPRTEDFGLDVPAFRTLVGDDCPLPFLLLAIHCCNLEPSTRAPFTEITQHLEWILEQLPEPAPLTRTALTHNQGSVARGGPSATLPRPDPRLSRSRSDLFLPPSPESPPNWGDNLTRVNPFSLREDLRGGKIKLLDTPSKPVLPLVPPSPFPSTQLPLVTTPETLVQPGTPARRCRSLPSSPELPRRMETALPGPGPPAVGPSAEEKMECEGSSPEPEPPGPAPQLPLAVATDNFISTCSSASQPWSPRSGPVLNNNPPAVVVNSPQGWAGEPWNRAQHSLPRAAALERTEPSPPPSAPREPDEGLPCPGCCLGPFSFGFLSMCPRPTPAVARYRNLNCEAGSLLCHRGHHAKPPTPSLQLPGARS
Serine/threonine-protein kinase PAK 3 (Homo sapiens), sequence (O75914 whole entry, looked up): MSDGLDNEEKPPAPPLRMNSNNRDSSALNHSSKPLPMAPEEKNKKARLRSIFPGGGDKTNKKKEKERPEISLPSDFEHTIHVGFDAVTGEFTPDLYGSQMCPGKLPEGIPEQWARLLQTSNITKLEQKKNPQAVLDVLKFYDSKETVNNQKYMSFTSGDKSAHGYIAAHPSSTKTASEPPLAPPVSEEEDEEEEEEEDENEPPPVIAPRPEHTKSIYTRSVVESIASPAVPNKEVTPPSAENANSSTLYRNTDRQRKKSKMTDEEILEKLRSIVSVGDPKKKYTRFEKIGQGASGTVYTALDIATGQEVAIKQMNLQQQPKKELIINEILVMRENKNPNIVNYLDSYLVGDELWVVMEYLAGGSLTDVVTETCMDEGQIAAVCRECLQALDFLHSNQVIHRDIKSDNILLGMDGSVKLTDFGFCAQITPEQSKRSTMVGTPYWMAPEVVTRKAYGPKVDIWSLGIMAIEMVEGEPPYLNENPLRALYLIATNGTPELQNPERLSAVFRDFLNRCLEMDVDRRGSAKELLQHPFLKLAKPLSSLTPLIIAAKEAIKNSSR

C=CC(=O)Nc1cc(-n2c(=O)ccc3cnc4ccc(-c5ccc(NS(C)(=O)=O)cc5)cc4c32)ccc1C
Activity [1]: 87% | Activity [2]: 20.6% | Activity [3]: 97% | Activity [4]: 96% | Activity [5]: 9.1% | Activity [6]: 20% | Activity [7]: 94% | Activity [8]: 72% | Activity [9]: 79% | Activity [10]: 92% | Activity [11]: 94% | Activity [12]: 76% | inhibition [13]: inactive | Activity [14]: 68%
